Measured values taken from patent US6833456B2, “Indolyl-urea derivatives of thienopyridines useful as antiangiogenic agents, and methods for their use” (Agouron Pharmaceuticals, Inc., priority 2002, dated 2004).
Several values for one entry are separate records, joined by “and”; a condition that tells them apart may be missing. Equal entries are not always repeated. Values belong to the molecule of their own block, whether it stands above or below them.

Assays:
[1] = biological target: T1, unphosphorylated VEGF-R2Δ50 (FLVK) (Homo sapiens, UniProt P35968, DEL940-989/E990V); assay: VEGF-R2 coupled spectrophotometric assay, unphosphorylated construct (FLVK); type: biochemical; details: for inhibition at 0.05 µM: percent inhibition at 50 nM
T1 construct: VEGF-R2Δ50 contains residues 806-939 and 990-1171; made in house; host or cells: baculovirus/insect cell system
T1 sequence (P35968 with tags, fused parts or gaps DEL940-989/E990V limits assumed): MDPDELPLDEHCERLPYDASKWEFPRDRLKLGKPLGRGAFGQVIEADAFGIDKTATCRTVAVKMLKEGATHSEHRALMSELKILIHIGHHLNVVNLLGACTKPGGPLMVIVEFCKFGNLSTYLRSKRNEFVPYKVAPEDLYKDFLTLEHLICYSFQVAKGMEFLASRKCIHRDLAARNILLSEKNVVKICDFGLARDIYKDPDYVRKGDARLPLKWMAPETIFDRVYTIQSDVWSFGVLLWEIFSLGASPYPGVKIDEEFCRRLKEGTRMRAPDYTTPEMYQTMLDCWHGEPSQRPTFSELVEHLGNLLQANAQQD
Method in brief: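 Human VEGF-R2Δ50 cytosolic kinase (residues 806-939/990-1171, E990V), baculovirus-expressed, unphosphorylated form. PK/LDH-coupled NADH oxidation at 340 nm with 20 mM poly(E4Y1), 3 mM ATP, 60 mM MgCl2, 2 mM MnCl2, 200 mM HEPES pH 7.5, 5-40 nM enzyme; Ki fitted by Morrison equation.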

[2] = system: human umbilical vein endothelial cells (HUVEC); assay: HUVEC+VEGF proliferation assay; type: cell-based; details: VEGF 6 ng/mL, MTT
Method in brief: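 HUVEC (passage 3-4), serum-starved 24 h in F12K + 1% FBS, were pre-treated with compound for 1 h (0.1% DMSO final). They were then stimulated with VEGF at 6 ng/mL final. Proliferation was measured after 72 h by MTT dye reduction (4 h), with absorbance read at 595 nm.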

PDGFRβ = biological target: T2, PDGFRβ (Homo sapiens, UniProt P09619); assay: PAE-PDGFRβ phosphorylation in PAE-PDGFRB cells assay; type: cell-based; details: PAE cells overexpressing human PDGFRβ, PDGF-BB stimulated; read-out: PAE PDGFR autophos IC50
T2 construct: expressed in transfected cells; host or cells: porcine aorta endothelial (PAE) cells
T2 sequence (P09619 33-1106): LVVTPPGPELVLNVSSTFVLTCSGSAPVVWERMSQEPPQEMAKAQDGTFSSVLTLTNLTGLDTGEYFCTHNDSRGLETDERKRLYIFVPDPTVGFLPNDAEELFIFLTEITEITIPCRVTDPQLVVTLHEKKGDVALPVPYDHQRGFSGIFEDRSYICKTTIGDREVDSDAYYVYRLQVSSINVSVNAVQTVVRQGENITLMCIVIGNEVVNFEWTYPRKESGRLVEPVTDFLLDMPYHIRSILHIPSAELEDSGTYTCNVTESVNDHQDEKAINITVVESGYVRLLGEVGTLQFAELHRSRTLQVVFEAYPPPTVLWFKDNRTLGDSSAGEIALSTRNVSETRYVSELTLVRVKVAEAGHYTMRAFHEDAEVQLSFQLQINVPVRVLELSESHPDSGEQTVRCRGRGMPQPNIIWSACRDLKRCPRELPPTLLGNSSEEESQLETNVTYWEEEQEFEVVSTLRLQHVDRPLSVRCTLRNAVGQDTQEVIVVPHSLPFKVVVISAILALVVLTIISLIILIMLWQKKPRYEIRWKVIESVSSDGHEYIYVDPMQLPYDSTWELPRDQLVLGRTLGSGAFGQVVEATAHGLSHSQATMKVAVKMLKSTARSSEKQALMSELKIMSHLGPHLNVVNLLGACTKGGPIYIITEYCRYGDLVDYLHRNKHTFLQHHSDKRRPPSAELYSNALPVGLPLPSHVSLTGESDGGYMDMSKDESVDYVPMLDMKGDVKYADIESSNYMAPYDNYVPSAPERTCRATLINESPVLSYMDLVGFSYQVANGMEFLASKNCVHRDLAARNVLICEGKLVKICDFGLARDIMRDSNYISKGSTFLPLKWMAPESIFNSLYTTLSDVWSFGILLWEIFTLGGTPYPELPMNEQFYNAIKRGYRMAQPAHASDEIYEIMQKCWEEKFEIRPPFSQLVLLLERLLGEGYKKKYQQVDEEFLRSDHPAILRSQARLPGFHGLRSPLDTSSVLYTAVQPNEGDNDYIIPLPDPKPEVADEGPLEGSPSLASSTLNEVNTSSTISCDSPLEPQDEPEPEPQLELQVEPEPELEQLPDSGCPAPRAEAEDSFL
Method in brief: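 PAE cells overexpressing human PDGFRβ, serum-starved 16 h (0.1% FBS), compound 1 h at 37° C (0.5% DMSO), then 1 μg/mL PDGF-BB with 2 mM Na3VO4 for 8 min. Receptor captured by anti-PDGFRβ, phosphotyrosine detected by HRP-PY20/TMB at 450 nm; IC50 by four-parameter fit.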

HUVEC = assay: bFGF HUVEC proliferation; type: cell-based, human; details: bFGF stimulated HUVEC
Mouse PK assay = type: in vivo, B6 female mice; details: po
Experimental: The pharmacokinetics (e.g., absorption and elimination) of drugs in mice were analyzed using the following experiment. Test compounds were formulated as a suspension in a 30:70 (PEG 400: acidified H2O) vehicle. This solution was administered orally (p.o.) and intraperitoneally (i.p.) at 50 mg/kg to two distinct groups (n=4) of B6 female mice. Blood samples were collected via an orbital bleed at time points: 0 hour (pre-dose), 0.5 hr, 1.0 hr, 2.0 hr, and 4.0 hr post dose. Plasma was obtained from each sample by centrifugation at 2500 rpm for 5 min. Test compound was extracted from the plasma by an organic protein precipitation method. For each time bleed, 50 μL of plasma was combined with 1.0 mL of acetonitrile, vortexed for 2 min. and then spun at 4000 rpm for 15 min. to precipitate the protein and extract out the test compound. Next, the acetonitrile supernatant (the extract containing test compound) was poured into new test tubes and evaporated on a hot plate (25° C.) under a steam of N2 gas. To each tube containing the dried test compound extract, 125 μL of mobile phase (60:40, 0.025 M NH4H2PO4+2.5 mL/L TEA:acetonitrile) was added. The test compound was resuspended in the mobile phase by vortexing and more protein was removed by centrifugation at 4000 rpm for 5 min. Each sample was poured into an HPLC vial for test compound analysis on an Hewlett Packard 1100 series HPLC with UV detection. From each sample, 95 μL was injected onto a Phenomenex-Prodigy reverse phase C-18, 150×3.2 mm column and eluted with a 45-50% acetonitrile gradient run over 10 min. Test-compound plasma concentrations (μg/mL) were determined by a comparison to standard curve (peak area vs. conc. μg/mL) using known concentrations of test compound extracted from plasma samples in the manner described above. Along with the standards and unknowns, three groups (n=4) of quality controls (0.25 μg/mL, 1.5 μg/mL, and 7.5 μg/mL) were run to insure the consistency of the analysis. […] The quantitated test samples were plotted for visual display using Kaleidagraph software and their pharmacokinetic parameters were determined using WIN NONLIN software.

KDR (VEGFR2) = biological target: T3, KDR (VEGFR2) (Homo sapiens, UniProt P35968); assay: KDR (VEGFR2) phosphorylation in PAE-KDR cells assay; type: cell-based; details: PAE cells overexpressing human KDR, VEGF stimulated; read-out: PAE KDR autophos IC50
T3 construct: expressed in transfected cells; host or cells: porcine aorta endothelial (PAE) cells
T3 sequence (P35968 20-1356): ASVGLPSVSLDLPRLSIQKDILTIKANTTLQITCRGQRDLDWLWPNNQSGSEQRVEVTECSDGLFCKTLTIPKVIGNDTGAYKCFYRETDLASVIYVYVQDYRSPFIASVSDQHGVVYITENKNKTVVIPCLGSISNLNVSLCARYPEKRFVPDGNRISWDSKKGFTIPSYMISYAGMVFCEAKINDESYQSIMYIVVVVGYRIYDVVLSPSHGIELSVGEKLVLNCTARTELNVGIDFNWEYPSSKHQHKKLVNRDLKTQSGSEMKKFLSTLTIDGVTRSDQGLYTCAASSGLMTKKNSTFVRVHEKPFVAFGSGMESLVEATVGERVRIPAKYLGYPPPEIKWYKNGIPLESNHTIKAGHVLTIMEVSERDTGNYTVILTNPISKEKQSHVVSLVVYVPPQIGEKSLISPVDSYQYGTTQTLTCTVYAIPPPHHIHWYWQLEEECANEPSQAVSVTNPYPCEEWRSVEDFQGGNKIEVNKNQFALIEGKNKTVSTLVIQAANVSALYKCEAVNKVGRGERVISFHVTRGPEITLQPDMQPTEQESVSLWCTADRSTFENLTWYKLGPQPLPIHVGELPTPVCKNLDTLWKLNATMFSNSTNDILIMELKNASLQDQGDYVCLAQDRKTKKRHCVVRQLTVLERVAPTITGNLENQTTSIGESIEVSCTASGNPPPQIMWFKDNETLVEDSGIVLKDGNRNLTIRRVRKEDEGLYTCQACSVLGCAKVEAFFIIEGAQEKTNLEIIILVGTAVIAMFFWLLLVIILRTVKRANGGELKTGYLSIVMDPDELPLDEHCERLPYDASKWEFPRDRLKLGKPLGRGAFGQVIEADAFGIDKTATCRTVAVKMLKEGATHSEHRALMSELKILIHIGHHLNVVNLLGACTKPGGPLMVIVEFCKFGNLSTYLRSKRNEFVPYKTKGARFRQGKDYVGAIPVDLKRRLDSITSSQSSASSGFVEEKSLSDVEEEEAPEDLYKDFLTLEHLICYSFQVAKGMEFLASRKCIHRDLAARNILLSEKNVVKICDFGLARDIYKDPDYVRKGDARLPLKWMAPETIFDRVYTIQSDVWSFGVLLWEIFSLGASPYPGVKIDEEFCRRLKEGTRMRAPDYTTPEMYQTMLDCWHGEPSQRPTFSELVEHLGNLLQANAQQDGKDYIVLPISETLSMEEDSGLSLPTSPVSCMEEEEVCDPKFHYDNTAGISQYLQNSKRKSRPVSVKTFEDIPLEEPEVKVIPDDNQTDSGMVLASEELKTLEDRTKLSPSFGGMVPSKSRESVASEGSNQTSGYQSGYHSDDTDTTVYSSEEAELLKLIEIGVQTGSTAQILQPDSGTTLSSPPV
Experimental: This assay determines the ability of a test compound to inhibit the autophosphorylation of KDR in porcine aorta endothelial (PAE)-KDR cells. PAE cells that overexpress human KDR were used in this assay. The cells were cultured in Ham's F12 media supplemented with 10% fetal bovine serum (FBS) and 400 ug/mL G418. Thirty thousands cells were seeded into each well of a 96-well plate in 75 μL of growth media and allowed to attach for 6 hours at 37° C. Cells were then exposed to the starvation media (Ham's F12 media supplemented with 0.1% FBS) for 16 hours. After the starvation period was over, 10 μL of test agent in 5% DMSO in starvation media were added to the test wells and 10 μL of the vehicle (5% DMSO in starvation media) were added into the control wells. The final DMSO concentration in each well was 0.5%. Plates were incubated at 37° C. for 1 hour and the cells were then stimulated with 500 ng/ml VEGF (commercially available from R & D System) in the presence of 2 mM Na3VO4 for 8 minutes. The cells were washed once with 1 mm Na3VO4 in HBSS and lysed by adding 50 μL per well of lysis buffer. One hundred μL of dilution buffer were then added to each well and the diluted cell lysate was transferred to a 96-well goat ant-rabbit coated plate (commercially available from Pierce) which was pre-coated with Rabbit anti Human Anti-flk-1 C-20 antibody (commercially available from Santa Cruz). The plates were incubated at room temperature for 2 hours and washed seven times with 1% Tween 20 in PBS. HRP-PY20 (commercially available from Santa Cruz) was diluted and added to the plate for a 30-minute incubation. Plates were then washed again and TMB peroxidase substrate (commercially available from Kirkegaard & Perry) was added for a 10-minute incubation. One hundred μL of 0.09 N H2SO4 was added to each well of the 96-well plates to stop the reaction. Phosphorylation status was assessed by spectrophotometer reading at 450 nm. IC50 values were calculated by curve fitting using a four-parameter analysis.

Ki [1]: 0.462 nM
inhibition at 0.05 µM [1]: 97%
IC50 (PDGFRβ): 8.1 nM and 6.3 nM
Molecule: CNC(=O)n1ccc2cc(Oc3ccnc4cc(-c5nc(C(C)(C)O)cs5)sc34)ccc21 [Example 31, 5-{2-[4-(1-Hydroxy-1-methyl-ethyl)-thiazol-2-yl]-thieno[3,2-b]pyridin-7-yloxy}-indole-1-carboxylic acid methylamide]
IC50 ([2]; Homo sapiens, HUVEC, 72 h): 0.16 nM
IC50 (HUVEC; Homo sapiens, HUVEC): 101 nM

Ki [1]: 0.143 nM
inhibition at 0.05 µM [1]: 98%
IC50 (PDGFRβ): 13 nM
Molecule: C#CCNC(=O)n1c(C)cc2cc(Oc3ccnc4cc(C(=O)N5CCC[C@@H]5COC)sc34)ccc21 [Example 8p, 5-[2-(2R-Methoxymethyl-pyrrolidine-1-carbonyl)-thieno[3,2-b]pyridin-7-yloxy]-2-methyl-indole-1-carboxylic acid prop-2-ynylamide]
IC50 ([2]; Homo sapiens, HUVEC, 72 h): 0.137 nM
IC50 (HUVEC; Homo sapiens, HUVEC): 197 nM

Ki [1]: 0.162 nM
inhibition at 0.05 µM [1]: 97%
IC50 (PDGFRβ): 18 nM and 20 nM
Molecule: C#CCNC(=O)n1c(C)cc2cc(Oc3ccnc4cc(C(=O)N5CC[C@H](O)C5)sc34)ccc21 [Example 9j, 5-[2-(3S-Hydroxy-pyrrolidine-1-carbonyl)-thieno[3,2-b]pyridin-7-yloxy]-2-methyl-indole-1-carboxylic acid prop-2-ynylamide]
IC50 ([2]; Homo sapiens, HUVEC, 72 h): 0.29 nM
IC50 (HUVEC; Homo sapiens, HUVEC): 81 nM

Ki [1]: 4.47 nM
inhibition at 0.05 µM [1]: 74%
Molecule: CNC(=O)n1c(C)cc2cc(Oc3ccnc4cc(C(=O)N5CC(O)C5)sc34)ccc21 [Example 8o, 5-[2-(3-Hydroxy-azetidine-1-carbonyl)-thieno[3,2-b]pyridin-7-yloxy]-2-methyl-indole-1-carboxylic acid methylamide]
IC50 ([2]; Homo sapiens, HUVEC, 72 h): 1.25 nM
IC50 (HUVEC; Homo sapiens, HUVEC): 61 nM

The next lines start with the molecule.

Molecule: CNC(=O)n1c(C)cc2cc(Oc3ccnc4cc(C(=O)N(C)CCO)sc34)ccc21 [Example 3n, 7-(2-Methyl-1-methylcarbamoyl-1H-indol-5-yloxy)-thieno[3,2-b]pyridine-2-carboxylic acid (2-hydroxy-ethyl)-methyl-amide]
Ki [1]: 0.505 nM
inhibition at 0.05 µM [1]: 88%
IC50 ([2]; Homo sapiens, HUVEC, 72 h): 0.267 nM
IC50 (PDGFRβ): 76.3 nM
IC50 (HUVEC; Homo sapiens, HUVEC): 87 nM

Molecule: CO[C@H]1CN(C(=O)c2cc3nccc(Oc4ccc5c(c4)cc(C)n5C(=O)NCCO)c3s2)CC1F (stereo partly drawn) [Example 8k, 5-[(2-{[(4S)-3-Fluoro-4-methoxypyrrolidin-1-yl]carbonyl}thieno[3,2b]pyridin-7-yl)oxy]-N-(2-hydroxyethyl)-2-methyl-1H-indole-1-carboxamide]
Ki [1]: 0.868 nM
inhibition at 0.05 µM [1]: 95%
IC50 ([2]; Homo sapiens, HUVEC, 72 h): 0.32 nM
IC50 (HUVEC; Homo sapiens, HUVEC): 18 nM

Molecule: CNC(=O)n1c(C)cc2cc(Nc3ccnc4cc(C(=O)N5CC[C@H](O)C5)sc34)ccc21 [Example 1i, 5-[2-(3S-Hydroxy-pyrrolidine-1-carbonyl)-thieno[3,2-b]pyridin-7-ylamino]-2-methyl-indole-1-carboxylic acid methylamide]
Ki [1]: 0.69 nM
inhibition at 0.05 µM [1]: 93%
IC50 ([2]; Homo sapiens, HUVEC, 72 h): 1.03 nM
IC50 (PDGFRβ): ~1000 nM
IC50 (HUVEC; Homo sapiens, HUVEC): 44.2 nM

Molecule: CNC(=O)n1c(C)cc2cc(Oc3ccnc4cc(C(=O)N5CC[C@@H](N(C)C)C5)sc34)ccc21 [Example 8g, 5-[(2-{[(3R)-3-(Dimethylamino)pyrrolidin-1-yl]carbonyl}thieno[3,2-b]pyridin-7-yl)oxy]-N,2-dimethyl-1H-indole-1-carboxamide]
Ki [1]: 0.643 nM
inhibition at 0.05 µM [1]: 99%
IC50 ([2]; Homo sapiens, HUVEC, 72 h): 0.15 nM
IC50 (PDGFRβ): 15.4 nM
IC50 (HUVEC; Homo sapiens, HUVEC): 9 nM

Molecule: COC[C@@H]1C[C@@H](O)CN1C(=O)c1cc2nccc(Nc3ccc4c(c3)cc(C)n4C(=O)NC3CC3)c2s1 [Example 3h]
Ki [1]: 1.19 nM
inhibition at 0.05 µM [1]: 95%
IC50 ([2]; Homo sapiens, HUVEC, 72 h): 1.94 nM
IC50 (HUVEC; Homo sapiens, HUVEC): 225 nM

Molecule: Cc1cc2cc(Oc3ccnc4cc(C(=O)N5CCC5)sc34)ccc2n1C(=O)NCCCO [Example 8n, 5-[2-(Azetidine-1-carbonyl)-thieno[3,2-b]pyridin-7-yloxy]-2-methyl-indole-1-carboxylic acid (3-hydroxy-propyl)-amide]
Ki [1]: 0.089 nM
inhibition at 0.05 µM [1]: 97%
IC50 (PDGFRβ): 10.2 nM
IC50 (HUVEC; Homo sapiens, HUVEC): 58 nM

Molecule: 5-[2-(3S-Methoxy-pyrrolidine-1-carbonyl)-thieno[3,2-b]pyridin-7-ylamino]-2-methyl-2,3-dihydro-indole-1-carboxylic acid methylamide [Example 1u]
IC50 ([2]; 72 hours): > 10 nM
IC50 (PDGFRβ): > 100 nM
IC50 (HUVEC): 4840 nM

Molecule: Cc1cc2cc(Oc3ccnc4cc(C(=O)N5CC[C@@H](N(C)C)C5)sc34)ccc2n1C(=O)NCCO [Example 8l, 5-[(2-{[(3R)-3-(Dimethylamino)pyrrolidin-1-yl]carbonyl}thieno[3,2-b]pyridin-7-yl)oxy]-N-(2-hydroxyethyl)-2-methyl-1H-indole-1-carboxamide]
Ki [1]: 0.88 nM
inhibition at 0.05 µM [1]: 88%
IC50 ([2]; Homo sapiens, HUVEC, 72 h): 1.5 nM
IC50 (PDGFRβ): 18.8 nM
IC50 (HUVEC; Homo sapiens, HUVEC): 63 nM

Molecule: C#CCNC(=O)n1c(C)cc2cc(Nc3ccnc4cc(C(=O)N5CC[C@@H](OC)C5)sc34)ccc21 [Example 1p, 5-[2-(3R-Methoxy-pyrrolidine-1-carbonyl)-thieno[3,2-b]pyridin-7-ylamino]-2-methyl-indole-1-carboxylic acid prop-2-ynylamide]
Ki [1]: 0.2 nM
inhibition at 0.05 µM [1]: 93%
IC50 (PDGFRβ): 56 nM
IC50 (HUVEC; Homo sapiens, HUVEC): 119 nM
AUC (Mouse PK assay; female, B6, mouse, plasma, 50 mg/kg): 2530 ng·h/mL
Cmax (Mouse PK assay; female, B6, mouse, plasma, 50 mg/kg, p.o., 50 mg/kg, read-out: Mouse Cmax, po ng-h/mL): 1230 ng/mL
Mouse Cmin, po (Mouse PK assay): 34 ng/mL

Molecule: Cc1cc2c(F)c(Oc3ccnc4cc(C(=O)N5CCC[C@H]5CO)sc34)ccc2n1C(=O)NC1CC1 [Example 5d, 4-Fluoro-5-[2-(2S-hydroxymethyl-pyrrolidine-1-carbonyl)-thieno[3,2-b]pyridin-7-yloxy]-2-methyl-indole-1-carboxylic acid cyclopropylamide]
Ki [1]: 0.324 nM
inhibition at 0.05 µM [1]: 96%
IC50 ([2]; Homo sapiens, HUVEC, 72 h): 0.35 nM
IC50 (KDR (VEGFR2)): 0.53 nM and 0.44 nM and 0.275 nM
IC50 (PDGFRβ): 21.5 nM
